Source: ChEMBL document CHEMBL6109147, “Discovery of Potent STING Inhibitors Bearing a Difluorobenzodioxol Structural Motif as Potent Anti-Inflammatory Agents” (J Med Chem, 2025)
The source made the active and inactive calls. No cut-off for these calls is given here.

What was measured:
[1] = target: Stimulator of interferon genes protein (Homo sapiens) (UniProt Q86WV6); assay: Inhibition of STING downstream signalling in human THP1-Dual cells assessed as inhibition of HT-DNA induced IP-10 mRNA expression at 0.3 to 3 uM pre-treated for 1 hr followed by stimulated with HT-DNA measured after 4 hrs by real-time PCR analysis; assay type: cell-based; details: dose 0.3-3 µM, time 5.0 hrs
Sequence of Stimulator of interferon genes protein (Homo sapiens) (Q86WV6 whole entry): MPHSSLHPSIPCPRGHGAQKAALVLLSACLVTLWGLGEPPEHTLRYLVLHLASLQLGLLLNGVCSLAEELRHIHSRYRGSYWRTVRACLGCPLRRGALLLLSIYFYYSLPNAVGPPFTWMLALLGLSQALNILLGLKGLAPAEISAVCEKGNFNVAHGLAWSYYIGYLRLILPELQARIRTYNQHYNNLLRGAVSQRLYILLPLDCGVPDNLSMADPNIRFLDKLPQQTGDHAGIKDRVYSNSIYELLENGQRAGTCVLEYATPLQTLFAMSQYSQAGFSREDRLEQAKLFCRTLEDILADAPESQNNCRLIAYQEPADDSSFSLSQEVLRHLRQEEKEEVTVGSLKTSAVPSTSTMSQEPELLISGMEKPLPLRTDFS

[2] = target: Stimulator of interferon genes protein (Homo sapiens) (UniProt Q86WV6); assay: Inhibition of STING downstream signalling in human THP1-Dual cells assessed as inhibition of HT-DNA induced TNF-alpha mRNA expression at 0.3 to 3 uM pre-treated for 1 hr followed by stimulated with HT-DNA measured after 4 hrs by real-time PCR analysis; assay type: cell-based; details: dose 0.3-3 µM, time 5.0 hrs
Mus musculus [3] = assay: Anti-inflammatory activity in TREX1 D18N mouse model assessed as reduction in Isg15 mRNA expression in heart at 10 mg/kg, ip measured after 2 weeks; assay type: functional, organism-based
Mus musculus [4] = assay: Anti-inflammatory activity against MSA-2 induced C57BL/6 mouse inflammation model assessed as inhibition of MSA-2 induced Cxcl-10 mRNA expression in kidney at 10 mg/kg, ip pre-treated for 1 hr followed by stimulated with MSA-2 for 4 hrs by real-time PCR analysis; assay type: functional, organism-based; details: time 5.0 hrs
[5] = target: T1, Stimulator of interferon genes protein (Mus musculus) (UniProt Q3TBT3); assay: Inhibition of STING downstream signalling in mouse BMDM cells assessed as inhibition of MSA-2 induced IRF3 phosphorylation pre-treated for 1 hr followed by stimulated with MSA-2 measured after 4 hrs by Western blot analysis; assay type: cell-based; details: dose 0.3-3 µM, time 5.0 hrs
T1 sequence (whole entry): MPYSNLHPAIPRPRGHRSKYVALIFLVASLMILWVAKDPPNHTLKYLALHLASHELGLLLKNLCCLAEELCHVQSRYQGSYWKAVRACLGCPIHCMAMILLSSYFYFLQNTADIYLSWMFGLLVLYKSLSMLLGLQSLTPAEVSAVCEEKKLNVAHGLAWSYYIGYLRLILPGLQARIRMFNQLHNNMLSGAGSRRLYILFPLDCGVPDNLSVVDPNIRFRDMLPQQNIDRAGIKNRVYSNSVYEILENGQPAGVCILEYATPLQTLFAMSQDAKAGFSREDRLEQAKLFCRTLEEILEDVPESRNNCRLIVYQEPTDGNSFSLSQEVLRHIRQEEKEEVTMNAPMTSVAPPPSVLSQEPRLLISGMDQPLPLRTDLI

[6] = target: T1, Stimulator of interferon genes protein (Mus musculus); assay: Inhibition of STING downstream signalling in mouse BMDM cells assessed as inhibition of MSA-2 induced Isg56 mRNA level pre-treated for 1 hr followed by stimulated with MSA-2 measured after 4 hrs by real-time PCR analysis; assay type: cell-based; details: dose 0.3-3 µM, time 5.0 hrs
[7] = target: T1, Stimulator of interferon genes protein (Mus musculus); assay: Inhibition of STING in mouse […] ISG cells assessed as reduction in MSA-2-induced secreted luciferase reporter of interferon stimulated gene (ISG) measured after 24 hrs incubation; assay type: cell-based; details: RAW-Lucia ISG
[8] = Clearance in Sprague-Dawley rat at 1 mg/kg, iv; assay type: ADME, organism-based; details: in vivo
Mus musculus [9] = assay: Anti-inflammatory activity in TREX1 D18N mouse model assessed as reduction in Cxcl10 mRNA expression in heart at 10 mg/kg, ip measured after 2 weeks; assay type: functional, organism-based
[10] = tested on: Stimulator of interferon genes protein (Homo sapiens), Q86WV6 [UNDEFINED MUTATION]; assay: Inhibition of human STING expressed in 293T-Dual-hSTING-AQ cells assessed as reduction in cGAMP-induced secreted luciferase reporter of interferon stimulated gene (ISG) measured after 24 hrs incubation; assay type: cell-based
Sequence of Stimulator of interferon genes protein (Homo sapiens), Q86WV6 [UNDEFINED MUTATION] (Q86WV6 whole entry, looked up, change not shown): as the sequence (Q86WV6 whole entry) above

[11] = target: Stimulator of interferon genes protein (Homo sapiens) (UniProt Q86WV6); assay: Inhibition of human wild type STING (R232) expressed in human 293-Dual hSTING-R232 cells assessed as reduction in cGAMP-induced IL-6 expression; assay type: cell-based
[12] = target: Stimulator of interferon genes protein (Homo sapiens) (UniProt Q86WV6); assay: Inhibition of STING downstream signalling in human THP1-Dual cells assessed as inhibition of HT-DNA induced ISG15 mRNA expression at 0.3 to 3 uM pre-treated for 1 hr followed by stimulated with HT-DNA measured after 4 hrs by real-time PCR analysis; assay type: cell-based; details: dose 0.3-3 µM, time 5.0 hrs
Mus musculus [13] = assay: Toxicity in TREX1 D18N mouse model assessed as change in body weight at 10 mg/kg, ip measured after 2 weeks; assay type: organism-based; details: in vivo, 336 h
Mus musculus [14] = assay: Effect on Ifn-beta expression in Cisplatin induced C57BL/6 STING-KO mouse kidney inflammation model at 5 mg/kg, ip treated for 3 days by real-time PCR analysis; assay type: functional, organism-based; details: time 3.0 day
Mus musculus [15] = assay: Prevention of body weight loss in Cisplatin induced C57BL/6 mouse kidney inflammation model at 5 mg/kg, ip treated for 3 days; assay type: functional, organism-based; details: time 3.0 day
[16] = Half life in Sprague-Dawley rat at 3 mg/kg, po; assay type: ADME, organism-based; details: in vivo
Mus musculus [17] = assay: Anti-inflammatory activity against Cisplatin induced C57BL/6 mouse kidney inflammation model assessed as suppression of Cisplatin induced Isg56 mRNA level in kidney at 5 mg/kg, ip treated for 3 days by real-time PCR analysis; assay type: functional, organism-based; details: time 3.0 day
Mus musculus [18] = assay: Anti-inflammatory activity in TREX1 D18N mouse model assessed as reduction in Isg56 mRNA expression in heart at 10 mg/kg, ip measured after 2 weeks; assay type: functional, organism-based
[19] = target: Stimulator of interferon genes protein (Homo sapiens) (UniProt Q86WV6); assay: Inhibition of STING downstream signalling in human THP1-Dual cells assessed as inhibition of cGAMP induced IP-10 secretion at 0.3 to 3 uM pre-treated for 1 hr followed by stimulated with cGAMP measured after 24 hrs by ELISA; assay type: cell-based; details: dose 0.3-3 µM, time 25.0 hrs
[20] = target: T1, Stimulator of interferon genes protein (Mus musculus); assay: Inhibition of STING downstream signalling in mouse RAW264.7 cells assessed as inhibition of […] induced IL-6 secretion level at 0.3 to 3 uM pre-treated for 1 hr followed by stimulated with […] measured after 24 hrs by ELISA; assay type: cell-based; details: dose 0.3-3 µM, time 25.0 hrs
Mus musculus [21] = assay: Effect on Isg15 expression in Cisplatin induced C57BL/6 STING-KO mouse kidney inflammation model at 5 mg/kg, ip treated for 3 days by real-time PCR analysis; assay type: functional, organism-based; details: time 3.0 day
[22] = Metabolic stability in rat liver microsomes assessed as microsomal intrinsic clearance; assay type: ADME, Microsome; details: read-out: CLH
Mus musculus [23] = assay: Anti-inflammatory activity against MSA-2 induced C57BL/6 mouse inflammation model assessed as inhibition of MSA-2 induced Isg15 mRNA expression in kidney at 10 mg/kg, ip pre-treated for 1 hr followed by stimulated with MSA-2 for 4 hrs by real-time PCR analysis; assay type: functional, organism-based; details: time 5.0 hrs
[24] = target: T1, Stimulator of interferon genes protein (Mus musculus); assay: Inhibition of STING downstream signalling in mouse BMDM cells assessed as inhibition of MSA-2 induced Isg15 mRNA level pre-treated for 1 hr followed by stimulated with MSA-2 measured after 4 hrs by real-time PCR analysis; assay type: cell-based; details: dose 0.3-3 µM, time 5.0 hrs
[25] = target: T1, Stimulator of interferon genes protein (Mus musculus); assay: Inhibition of STING downstream signalling in mouse RAW264.7 cells assessed as inhibition of […] induced Cxcl-10 mRNA level pre-treated for 1 hr followed by stimulated with […] measured after 4 hrs by real-time PCR analysis; assay type: cell-based; details: dose 0.3-3 µM, time 5.0 hrs
[26] = target: Stimulator of interferon genes protein (Homo sapiens) (UniProt Q86WV6); assay: Inhibition of STING downstream signalling in human THP1-Dual cells assessed as inhibition of cGAMP induced IFN-beta secretion at 0.3 to 3 uM pre-treated for 1 hr followed by stimulated with cGAMP measured after 24 hrs by ELISA; assay type: cell-based; details: dose 0.3-3 µM, time 25.0 hrs
[27] = Metabolic stability in mouse liver microsomes assessed as liver intrinsic clearance; assay type: ADME, Microsome

inhibition [1]: Active | inhibition [2]: Active | inhibition [5]: Dose-dependent-effect | inhibition [6]: Dose-dependent-effect | inhibition [7]: Dose-dependent-effect | clearance [8]: 88.1 mL/min/kg | inhibition [10]: Active | inhibition [11]: Active | inhibition [12]: Active | half-life [16]: 3.27 h | inhibition [19]: Active | inhibition [20]: Active | microsomal CLint [22]: 36 µL/min/mg | inhibition [24]: Dose-dependent-effect | inhibition [25]: Dose-dependent-effect | inhibition [26]: Active | CLH [27]: 206 µL/min/mg
Compound: N#CC/C=C/c1ccc2[nH]cc(NC(=O)Nc3ccc4c(c3)OC(F)(F)O4)c2c1
Activity (Mus musculus [3]): Active | inhibition (Mus musculus [4]): Active | Activity (Mus musculus [9]): Active | Activity (Mus musculus [13]): Non-toxic | Activity (Mus musculus [14]): inactive | Activity (Mus musculus [15]): inactive | inhibition (Mus musculus [17]): Active | Activity (Mus musculus [18]): Active | Activity (Mus musculus [21]): inactive | inhibition (Mus musculus [23]): Active
